From ChEMBL document CHEMBL5385851, “Natural quinazolinones: From a treasure house to promising anticancer leads” (Eur J Med Chem, 2023)
In brackets after ≈: the same amount, converted by molar mass. Blank lines part the entries; values can stand above or below the compound they belong to.

Columns and labels:
[1] = tested on: A549; assay: Cytotoxicity against human A549 cells assessed as reduction in cell viability incubated for 24 hrs by MTT based colorimetric assay; type: functional; conditions: A549, 24 h
[2] = tested on: HCT-116; assay: Cytotoxicity against human HCT-116 cells assessed as reduction in cell growth by MTT based colorimetric assay; type: functional
[3] = tested on: HepG2; assay: Cytotoxicity against human HepG2 cells assessed as reduction in cell growth by MTT based colorimetric assay; type: functional
[4] = tested on: A-375; assay: Cytotoxicity against human A-375 cells assessed as reduction in cell growth by MTT based colorimetric assay; type: functional
[5] = tested on: A549; assay: Antiproliferative activity against human A549 cells assessed as reduction in cell viability incubated for 48 hrs by MTT assay; type: functional, cell-based; conditions: A549, 48 h
[6] = tested on: HepG2; assay: Antiproliferative activity against human HepG2 cells assessed as reduction in cell viability incubated for 72 hrs by CCK-8 assay; type: functional, cell-based; conditions: HepG2, 72 h
[7] = Antiproliferative activity against human U373 cells assessed as inhibition of cell growth measured after 72 hrs by CTG assay; type: functional, cell-based; conditions: U373 MG
[8] = tested on: A549; assay: Antiproliferative activity against human A549 cells assessed as cell growth inhibition; type: functional, cell-based
[9] = tested on: MCF7; assay: Antiproliferative activity against human MCF7 cells assessed as reduction in cell viability incubated for 48 hrs by MTT assay; type: functional, cell-based; conditions: MCF7, 48 h
[10] = tested on: SK-MEL-28; assay: Cytotoxicity against human SK-MEL-28 cells assessed as inhibition of cell growth incubated for 72 hrs by MTT assay; type: functional, cell-based; conditions: SK-MEL-28, 72 h
[11] = target: Tryptophan 2,3-dioxygenase (Homo sapiens, UniProt P48775); assay: Inhibition of TDO (unknown origin) expressed in HEK293 cells; type: cell-based
Sequence of Tryptophan 2,3-dioxygenase (P48775 whole entry): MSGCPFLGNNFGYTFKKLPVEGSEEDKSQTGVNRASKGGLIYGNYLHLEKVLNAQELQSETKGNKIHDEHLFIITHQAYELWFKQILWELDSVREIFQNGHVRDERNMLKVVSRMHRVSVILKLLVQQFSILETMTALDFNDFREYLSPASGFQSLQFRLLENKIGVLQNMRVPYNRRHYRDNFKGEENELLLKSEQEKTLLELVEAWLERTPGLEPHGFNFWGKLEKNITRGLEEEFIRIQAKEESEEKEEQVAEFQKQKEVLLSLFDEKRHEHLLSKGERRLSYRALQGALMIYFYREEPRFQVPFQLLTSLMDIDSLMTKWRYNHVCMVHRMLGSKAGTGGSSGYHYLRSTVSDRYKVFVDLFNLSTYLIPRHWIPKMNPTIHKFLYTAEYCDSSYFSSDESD

[12] = target: Indoleamine 2,3-dioxygenase 1 (Homo sapiens, UniProt P14902); assay: Inhibition of IDO1 in human HeLa cells; type: cell-based
Sequence of Indoleamine 2,3-dioxygenase 1 (P14902 whole entry): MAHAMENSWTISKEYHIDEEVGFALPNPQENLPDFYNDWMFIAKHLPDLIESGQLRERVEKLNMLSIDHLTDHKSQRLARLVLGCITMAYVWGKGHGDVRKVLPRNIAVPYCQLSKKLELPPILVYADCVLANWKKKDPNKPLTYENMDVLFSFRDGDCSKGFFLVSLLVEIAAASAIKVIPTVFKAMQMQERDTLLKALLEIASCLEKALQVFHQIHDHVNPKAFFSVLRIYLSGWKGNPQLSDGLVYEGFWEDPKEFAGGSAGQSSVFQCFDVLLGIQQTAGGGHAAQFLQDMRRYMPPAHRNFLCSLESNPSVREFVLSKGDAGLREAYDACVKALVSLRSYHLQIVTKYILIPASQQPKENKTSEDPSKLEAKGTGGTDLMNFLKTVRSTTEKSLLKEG

[13] = tested on: A549; assay: Antiproliferative activity against human A549 cells assessed as reduction in cell growth in presence of doxorubicin by CellTiter-Glo luminescent assay; type: functional, cell-based
[14] = tested on: HCT-116; assay: Cytotoxicity against human HCT-116 cells assessed as inhibition of cell growth by MTT based colorimetric analysis; type: functional
[15] = tested on: HepG2; assay: Cytotoxicity against human HepG2 cells assessed as inhibition of cell growth by MTT based colorimetric analysis; type: functional
[16] = tested on: A-375; assay: Cytotoxicity against human A-375 cells assessed as inhibition of cell growth by MTT based colorimetric analysis; type: functional
[17] = tested on: HL-60; assay: Antiproliferative activity against human HL-60 cells assessed as reduction in cell viability incubated for 72 hrs by MTT assay; type: functional, cell-based; conditions: HL-60, 72 h
[18] = tested on: MCF7; assay: Cytotoxicity against human MCF7 cells assessed as reduction in cell viability by MTS assay; type: functional, cell-based
[19] = tested on: NCI-H460; assay: Cytotoxicity against human NCI-H460 cells assessed as reduction in cell viability by MTS assay; type: functional, cell-based
[20] = tested on: SF-268; assay: Cytotoxicity against human SF-268 cells assessed as reduction in cell viability by MTS assay; type: functional, cell-based
[21] = tested on: Bel-7402; assay: Antiproliferative activity against human Bel-7402 cells assessed as inhibition of cell growth measured after 48 hrs by CCK-8 assay; type: functional, cell-based; conditions: Bel-7402, 48 h
[22] = tested on: P388; assay: Cytotoxicity against mouse P388 cells assessed as reduction in cell growth; type: functional; conditions: read-out: ED50 (the source's name)
[23] = tested on: HCT-116; assay: Antiproliferative activity against human HCT-116 cells assessed as reduction in cell growth incubated for 24 hrs by MTT assay; type: functional, cell-based; conditions: HCT-116, 24 h
[24] = tested on: MCF7; assay: Cytotoxicity against human MCF7 cells assessed as reduction in cell viability measured after 48 hrs by MTT assay; type: functional, cell-based; conditions: MCF7, 48 h

SMILES: CC(C)C[C@H]1NC(=O)[C@@H](C[C@]2(O)c3ccccc3N3C(=O)[C@@H](C)N[C@H]32)n2c1nc1ccccc1c2=O
IC50 [1]: 0.54 µM
IC50 [2]: 203 µM
IC50 [3]: 76 µM
IC50 [4]: 160 µM

IC50 [5]: 0.54 µM
IC50 [6]: 235 µM
IC50 [8]: > 100 µM
IC50 [9]: > 100 µM
SMILES: C[C@H]1C(=O)N2c3ccccc3[C@@]3(C[C@@H](n4cnc5ccccc5c4=O)C(=O)O3)[C@@H]2N1O
IC50 [7]: > 100 µM
IC50 [10]: > 100 µM

IC50 [11]: 0.07 µM
IC50 [12]: 0.02 µM
SMILES: O=C1c2nc3ccc(CCN4CCOCC4)cc3c(=O)n2C2C=CC(F)=CC12 (centres undefined)

IC50 [6]: 235 µM
IC50 [8]: > 100 µM
IC50 [9]: > 100 µM
SMILES: CC1(C)C(=O)N2c3ccccc3[C@@]3(C[C@@H](n4cnc5ccccc5c4=O)C(=O)O3)[C@@H]2N1O
IC50 [7]: > 100 µM
IC50 [10]: > 100 µM

IC50 [6]: 235 µM
IC50 [8]: > 100 µM
IC50 [9]: > 100 µM
SMILES: O=C1O[C@]2(C[C@H]1n1cnc3ccccc3c1=O)C(=O)Nc1ccccc12
IC50 [7]: > 100 µM
IC50 [10]: > 100 µM

IC50 [12]: 0.02 µM
SMILES: CCOC(=O)/C=C/c1ccc2nc3n(c(=O)c2c1)C1C=CC(F)=CC1C3=O (centres undefined)

IC50 [13]: 0.54 µM
IC50 [17]: 52 mg/L (≈ 104 µM)
SMILES: CC(C)C[C@H]1NC(=O)[C@@H](C[C@]2(O)c3ccccc3N3C(=O)C(C)(C)N[C@H]32)n2c1nc1ccccc1c2=O
IC50 [14]: 86 µM
IC50 [15]: 24 µM
IC50 [16]: 75 µM

SMILES: O=C1OCC23Nc4ccccc4C(=O)N2c2ccccc2C13 (centres undefined)
IC50 [18]: > 50 µM
IC50 [19]: > 50 µM
IC50 [20]: > 50 µM

IC50 [21]: 62 mg/L (≈ 182 µM)
SMILES: CC(C)/C=C1\NC(=O)[C@H](CCC(N)=O)n2c1nc1ccccc1c2=O [AURANTIOMIDE C]

SMILES: O=C1/C(=c2\c3ccccc3n3c(=O)c4ccccc4nc23)Nc2ccccc21 [CANDIDINE]
IC50 [18]: > 50 µM
IC50 [19]: > 50 µM
IC50 [20]: > 50 µM

SMILES: C[C@@H]1N[C@H]2N(C1=O)c1ccccc1[C@@]2(O)C[C@@H]1C(=O)N[C@@H](C)c2nc3ccccc3c(=O)n21 [FUMIQUINAZOLINE A]
EC50 [22]: 6.1 mg/L (≈ 13.7 µM)

SMILES: C[C@@H]1NC(=O)[C@@H](Cc2c[nH]c3ccccc23)n2c1nc1ccccc1c2=O [FUMIQUINAZOLINE F]
EC50 [22]: 14.6 mg/L (≈ 40.7 µM)

SMILES: C[C@H]1NC(=O)[C@@H](Cc2c[nH]c3ccccc23)n2c1nc1ccccc1c2=O [FUMIQUINAZOLINE G]
EC50 [22]: 17.7 mg/L (≈ 49.4 µM)

IC50 [23]: 202 µM
IC50 [6]: 235 µM
IC50 [8]: > 100 µM
IC50 [9]: > 100 µM
SMILES: C[C@@H]1N[C@@H]2N(C1=O)c1ccccc1[C@@]21C[C@@H](n2cnc3ccccc3c2=O)C(=O)O1 [FUMITREMORGIN F]
IC50 [7]: 90 µM
IC50 [10]: > 100 µM

SMILES: O=C1c2c(O)cccc2-n2c1nc1ccccc1c2=O [PHAITANTHRIN C]
IC50 [18]: > 50 µM
IC50 [19]: > 50 µM
IC50 [20]: > 50 µM

SMILES: COC(=O)c1c2ccccc2n2c(=O)c3ccccc3[nH]c12 [PHAITANTHRIN E]
IC50 [18]: > 50 µM
IC50 [19]: > 50 µM
IC50 [20]: > 50 µM

SMILES: COC(=O)CC1(O)c2ccccc2-n2c1nc1ccccc1c2=O (centres undefined) [PHAITANTHRINS B]
IC50 [18]: > 50 µM
IC50 [19]: > 50 µM
IC50 [20]: > 50 µM

SMILES: CC(=O)O[C@H](c1nc2ccccc2c(=O)n1[C@@H]1C[C@]2(OC1=O)c1ccccc1N1C(=O)C(C)(C)N(O)[C@H]12)C(C)C [TRYPTOQUIVALINE]
IC50 [24]: 72 µM
